Where two headings read alike, the source gives them in different places.

In one data set the target is T1, TcSir2 (Trypanosoma cruzi, UniProt Q4DP02).
T1 sequence (Q4DP02 1-359): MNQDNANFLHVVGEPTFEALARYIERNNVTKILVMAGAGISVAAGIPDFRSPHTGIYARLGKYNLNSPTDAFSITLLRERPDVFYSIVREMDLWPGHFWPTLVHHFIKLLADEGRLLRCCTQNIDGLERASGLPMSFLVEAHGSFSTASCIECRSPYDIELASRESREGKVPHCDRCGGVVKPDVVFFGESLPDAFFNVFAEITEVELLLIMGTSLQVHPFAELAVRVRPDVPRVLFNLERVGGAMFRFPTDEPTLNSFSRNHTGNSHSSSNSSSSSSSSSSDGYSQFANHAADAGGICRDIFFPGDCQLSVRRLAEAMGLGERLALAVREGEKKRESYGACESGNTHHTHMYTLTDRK
Put plainly: Recombinant TcSir2 activity assay (fluorescent peptide deacetylation). Type of data set: biochemical. The conditions noted are these: for IC50: recombinant TcSir2 0.1 μM, 10 μM peptide, 25 μM NAD+, 37 °C, ND = values measured but did not converge IC50 significantly. The text has this:
The peptide substrate (Abz-Gly-Pro-AcetylLys-Ser-Gln-EDDnp, where Abz stands for ortho-aminobenzoic), based on the TcSir2 specificity, was acquired from AminoTech (São Paulo, Brazil). This substrate contains an acetyl-Lys, which is available for trypsin cleavage only when the TcSir2 deacetylates the lysine side chain. After peptide deacetylation and cleavage, the fluorescent moiety (Abz) and the EDDnp suppressor group (N-[2,4-dinitrophenyl] ethylenediamine) are separated, and fluorescence (420 nm) can occur upon excitation at 320 nm. The TcSir2 activity assays were performed at 37 °C in a 25 mM Tris-HCl buffer with pH 8 and containing 137 mM NaCl, 2.7 mM KCl, and 1 mM MgCl2. The assays used 0.1 μM purified TcSir2 enzyme, 10 μM Abz-Gly-Pro-AcetylLys-Ser-Gln-EDDnp peptide, and 25 μM NAD^+ cofactor. After a 15 min incubation, 12 mM nicotinamide and 0.6 mg/mL trypsin (Sigma Aldrich, Sao Paulo, Brazil, N3376) were added to stop the reaction and cleave the deacetylated peptide (30 min at 37 °C). A control was also prepared without trypsin to detect the baseline fluorescence of the uncleaved peptide. Increasing concentrations of the putative inhibitory compound prepared in DMSO were also tested under the same conditions, with controls to detect the potential effect of DMSO at a maximum concentration of 5% (v/v) on TcSir2. Fluorescence was measured using a TECAN-InfinityPro2000 plate reader.
The percentage of inhibition data was calculated using the equation: Inhibition (%) = (1 − vi/vc) × 100, where vi represents the initial rate in the presence of the putative TcSir2 inhibitor, and vc is the initial rate of the control assay containing only DMSO. IC50 values were calculated based on the percentage of inhibition and concentration of the inhibitor using non-linear regression with least squares on GraphPad Prism (v8.1, GraphPad software, La Jolla, CA, USA). […] Km and Vmax in the presence and absence of the inhibitor were obtained by fitting the initial rate and [NAD^+] into the Michaelis-Menten equation on GraphPad Prism (GraphPad Prism version v8.1, for Windows, GraphPad Software, San Diego, California USA, www.graphpad.com).
Supplementary methods – Enzyme kinetic characterisation
The enzyme kinetic assay for TcSir2, based on a previous publication1 was divided into three steps. In the first one, the recombinant TcSir2, NAD+ and the peptide substrate (Abz-Gly-Pro-AcetylLys-Ser-Gln-EDDnp) were incubated for 15 min at 37° C.
In the second step, in order to stop the reaction, 12 mM nicotinamide was added to the reaction medium. Finally in the third step trypsin was added and the reaction medium incubated for 30 min at 37° C, as previously described1. Trypsin cleaves this substrate in the linkage between lysine and serine only when the acetyl moiety had been previously […]
when lysine was acetylated2. […]
r2 = 0.99, Fig. S5a) and the peptide substrate (2.1 µM, r2 = 0.97, Fig. S5b) were determined using seven different substrate concentrations, whereas one of them was kept constant.

The test system of the next data set is T. cruzi amastigote. Put plainly: In vitro trypanocidal activity with amastigote forms (Tulahuen LacZ, CPRG). The data set is classed as cell-based, Trypanosoma cruzi. The conditions noted are these: intracellular amastigotes in LLCMK2 cells, ND* = values measured but did not converge IC50 significantly, read-out: IC50 T. cruzi ama. The method, then: In 96-well plates, cells from the LLCMK2 lineage were seeded at a concentration of 5 × 10^4 cells/mL (80 μL). The trypomastigote forms of the Tulahuen LacZ strain were added at a concentration of 5 × 10^5 cells/mL (in a total of 20 μL) and, subsequently incubated for 24 h at 37 °C with a 5% CO2 atmosphere. Next, the trypomastigote forms present in the supernatant were washed, leaving only the amastigote forms. Serial dilutions of the compounds were added (1.95 to 200 µM) and the plate was incubated for 72 h at 37 °C with a 5% CO2 atmosphere. At the end of this period, the CPRG substrate (chlorophenol red β-D-galactopyranoside, 400 μM in 0.3% Triton X-100, pH 7.4) was added and incubated for additional 6 h. After incubation, the sample’s absorbance values were measured using a spectrophotometer at 570 nm.

The next data set deals with LLCMK2 cells. In words: Mammalian cell viability assay (MTT). The data set is classed as cell-based. The conditions noted are these: Macaca mulatta, LLC-MK2, Figure 4g; read-out: IC50 mammalian cell-lines. Here is the method:
(§1) LLCMK2 cells were maintained in RPMI-1640 medium supplemented with 10% fetal bovine serum (FBS) (Gibco, Carlsbad, CA, USA), penicillin/streptomycin (100 μg.mL^−1 and 0.1 mg.mL^−1, respectively, Sigma-Aldrich, St. Louis, Mo, USA) and 2 mM L-glutamine, and treated every second day. […] All cells were maintained in humidified CO2 at 37 °C. Cells were obtained at the third passage, propagated, and used in experiments between the fourth and fifth passages. Cells were routinely checked for contamination with mycoplasma by PCR. […] The principle of this method, as described by Mosmann et al., consists in measuring the cellular viability of the enzymatic activity of […] of living cells. […] At the end of the period incubation. 50 μL MTT (Sigma-Aldrich Corp. St. Louis, MO, USA) at the concentration of 2 mg.mL^−1. After 4 h incubation, 50 μL DMSO per well was added to dissolve formazan blue crystals. The absorbance was determined at 570 nm using Biotek Synergy HT microplate spectrophotometer. The percentage of cell viability was determined from the following formula (40): Cell Viability (%) = (Treatment Absorbance)/(Control Absorbance negative) × 100.

Data set [1] can be described thus: Mammalian cell viability assay (MTT). The conditions noted are these: rhesus monkey; LLCMK2 cells, MTT, 72 h; ND* = values measured but did not converge IC50 significantly; read-out: EC50 Cell Toxicity. Type of data set: cell-based. Here is the method:
as §1

Data set [2] relates to T. cruzi Sir2-related protein 1 (TcSir2rp1). Details: method as in PMID 29357372, PMID 19937668. The conditions noted are these: cited from earlier work.
The subject of the next data set is Chagas disease. The arrangement: method as in PMID 29357372. The conditions noted are these: cited from earlier work.
Substrate in data set [3]: NC(=O)c1ccc[n+](C2OC(COP(=O)([O-])OP(=O)(O)OCC3OC(n4cnc5c(N)ncnc54)C(O)C3O)C(O)C2O)c1
Put plainly: Recombinant TcSir2 activity assay (fluorescent peptide deacetylation). Type of data set: biochemical, Trypanosoma cruzi. The conditions noted are these: other: TcSir2, r2 = 0.99; pH 8.0; 37.0 °C. The text has this: The peptide substrate (Abz-Gly-Pro-AcetylLys-Ser-Gln-EDDnp, where Abz stands for ortho-aminobenzoic), based on the TcSir2 specificity, was acquired from AminoTech (São Paulo, Brazil). This substrate contains an acetyl-Lys, which is available for trypsin cleavage only when the TcSir2 deacetylates the lysine side chain. After peptide deacetylation and cleavage, the fluorescent moiety (Abz) and the EDDnp suppressor group (N-[2,4-dinitrophenyl] ethylenediamine) are separated, and fluorescence (420 nm) can occur upon excitation at 320 nm. The TcSir2 activity assays were performed at 37 °C in a 25 mM Tris-HCl buffer with pH 8 and containing 137 mM NaCl, 2.7 mM KCl, and 1 mM MgCl2. […] A control was also prepared without trypsin to detect the baseline fluorescence of the uncleaved peptide. […] Fluorescence was measured using a TECAN-InfinityPro2000 plate reader.
The percentage of inhibition data was calculated using the equation: Inhibition (%) = (1 − vi/vc) × 100, where vi represents the initial rate in the presence of the putative TcSir2 inhibitor, and vc is the initial rate of the control assay containing only DMSO. IC50 values were calculated based on the percentage of inhibition and concentration of the inhibitor using non-linear regression with least squares on GraphPad Prism (v8.1, GraphPad software, La Jolla, CA, USA). […]

Where [4] appears, read: Trypanosoma cruzi, LLC-MK2, 72 h.

As to Abz-Gly-Pro-AcetylLys-Ser-Gln-EDDnp, the Km at TcSir2 (TcSir2, r2 = 0.97, read-out: Km for the peptide substrate) was 2.1 µM.

Turning to `O=C(NCc1coc(-c2ccccc2)n1)Nc1ccc(-c2noc(C(F)(F)F)n2)cc1` [CDMS-01], the IC50 came to 76.7 µM in the data set with T. cruzi amastigote (setting [4]), 76.68 ± 0.02 µM in the data set on T. cruzi amastigote (72 h), 136 µM in the data set on LLCMK2 cells and 40 µM at TcSir2 (IC50 (TcSir2)). Also, the EC50 at 72 h in data set [1] was found to be 135.9 ± 0.5 µM. The Ki on TcSir2 is 21.5 µM. In addition, the Vmax at TcSir2 (3 µM CDMS-01), at TcSir2 (5 µM CDMS-01), on TcSir2 (10 µM CDMS-01), at TcSir2 (17 µM CDMS-01), at TcSir2 (20 µM CDMS-01) and at TcSir2 (30 µM CDMS-01) was 0.29 µM each time. The Vmax at TcSir2 (40 µM CDMS-01) is listed as 0.29 µM. In addition, on TcSir2 (effect on apparent Km and Vmax for NAD+), the inhibition mechanism entry is given as “competitive”.

With `O=C(Cn1ccnc1[N+](=O)[O-])NCc1ccccc1` [BZN, benznidazole, reference compound], the IC50 was 4.55 ± 0.03 µM with T. cruzi amastigote (setting [4]) and 9.33 ± 0.01 µM at TcSir2 (read-out: IC50 (TcSir2)). In addition, the EC50 at 72 h in data set [1] amounted to 204.1 ± 0.81 µM.

Consider `NC(=O)c1cccnc1` [Nicotinamide, reference compound], for which the “inhibition of NAD+-dependent deacetylase activity” value in data set [2] was “inhibition”. Further, the IC50 at TcSir2 (IC50 (TcSir2)) is 987.4 ± 0.64 µM.

With `O=C1c2cccc3cccc(c23)C(=O)N1CCCNCCCCNCCCNCCCN1C(=O)c2cccc3cccc(c23)C1=O` [BNIP-spermidine, bisnaphthalimidopropyl-spermidine], the “inhibition of NAD+-dependent deacetylase activity” value in data set [2] is “inhibition”. The “performance in the mouse model of Chagas disease” value in the data set on Chagas disease is on record as “performed poorly”.

B1: TcSir2 (Trypanosoma cruzi strain CL Brener) (protein)
chain: T1 sequence (Q4DP02 1-359)
Regarding B1, the Km in data set [3] worked out at 25 µM.

Usually Km stands for the concentration of substrate that gives half-maximal velocity. The IC50 is the midpoint of a concentration-inhibition curve. By EC50 is commonly meant the midpoint of the concentration-response curve. A word on the Ki: it is a measure of affinity in units of concentration, obtained from inhibition or displacement.

Values taken from article PMC10057528, “Trypanosoma cruzi Sirtuin 2 as a Relevant Druggable Target: New Inhibitors Developed by Computer-Aided Drug Design” (Pharmaceuticals, 2023).
